From publication PMC10174618, “Monoterpenoid aryl hydrocarbon receptor allosteric antagonists protect against ultraviolet skin damage in female mice” (Nature Communications, 2023)

What was measured:
Experiment in all cases: biochemical
Design in all cases: KINOMEscan scanMAX active site-directed competition binding assay, percent of control, 468 kinases
Details in all cases: competition binding, percent of control
MKNK1 = MKNK1 (Homo sapiens, UniProt Q9BUB5)
Outline: (§1)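 KINOMEscan active site-directed competition binding assay against 468 human kinases with 100 μM S-carvone. Binding expressed as % of control, with 35% of control as the inhibition threshold.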

RIOK1 = RIOK1 (Homo sapiens, UniProt Q9BRS2)
Outline: as §1

MEK6 = biological target: T1, MEK6 (Homo sapiens, UniProt P52564)
T1 construct: gene MAP2K6
Outline: as §1

PIK3CA(Q546K) = PIK3CA(Q546K) (Homo sapiens, UniProt P42336, Q546K)
Outline: as §1

BUB1 = BUB1 (Homo sapiens, UniProt O43683)
Outline: as §1

ABL1-nonphosphorylated = biological target: T2, ABL1-nonphosphorylated (Homo sapiens, UniProt P00519)
T2 construct: nonphosphorylated
Outline: as §1

EGFR = EGFR (Homo sapiens, UniProt P00533)
Outline: as §1

TXK = TXK (Homo sapiens, UniProt P42681)
Outline: as §1

LTK = LTK (Homo sapiens, UniProt P29376)
Outline: as §1

LKB1 = biological target: T3, LKB1 (Homo sapiens, UniProt Q15831)
T3 construct: gene STK11
Outline: as §1

MRCKB = biological target: T4, MRCKB (Homo sapiens, UniProt Q9Y5S2)
T4 construct: gene CDC42BPB
Outline: as §1

PAK1 = PAK1 (Homo sapiens, UniProt Q13153)
Outline: as §1

EPHA5 = EPHA5 (Homo sapiens, UniProt P54756)
Outline: as §1

[1] = biological target: T5, ABL1(F317I)-phosphorylated (Homo sapiens, UniProt P00519, F317I)
T5 construct: phosphorylated
Outline: as §1

MAPKAPK5 = MAPKAPK5 (Homo sapiens, UniProt Q8IW41)
Outline: as §1

PCTK1 = biological target: T6, PCTK1 (Homo sapiens, UniProt Q00536)
T6 construct: gene CDK16
Outline: as §1

ADCK3 = biological target: T7, ADCK3 (Homo sapiens, UniProt Q8NI60)
T7 construct: gene COQ8A
Outline: as §1

ERK3 = biological target: T8, ERK3 (Homo sapiens, UniProt Q16659)
T8 construct: gene MAPK6
Outline: as §1

CDC2L5 = biological target: T9, CDC2L5 (Homo sapiens, UniProt Q14004)
T9 construct: gene CDK13
Outline: as §1

CTK = biological target: T10, CTK (Homo sapiens, UniProt P42679)
T10 construct: gene MATK
Outline: as §1

LRRK2(G2019S) = LRRK2(G2019S) (Homo sapiens, UniProt Q5S007, G2019S)
Outline: as §1

MAPKAPK5, sequence (Q8IW41 whole entry): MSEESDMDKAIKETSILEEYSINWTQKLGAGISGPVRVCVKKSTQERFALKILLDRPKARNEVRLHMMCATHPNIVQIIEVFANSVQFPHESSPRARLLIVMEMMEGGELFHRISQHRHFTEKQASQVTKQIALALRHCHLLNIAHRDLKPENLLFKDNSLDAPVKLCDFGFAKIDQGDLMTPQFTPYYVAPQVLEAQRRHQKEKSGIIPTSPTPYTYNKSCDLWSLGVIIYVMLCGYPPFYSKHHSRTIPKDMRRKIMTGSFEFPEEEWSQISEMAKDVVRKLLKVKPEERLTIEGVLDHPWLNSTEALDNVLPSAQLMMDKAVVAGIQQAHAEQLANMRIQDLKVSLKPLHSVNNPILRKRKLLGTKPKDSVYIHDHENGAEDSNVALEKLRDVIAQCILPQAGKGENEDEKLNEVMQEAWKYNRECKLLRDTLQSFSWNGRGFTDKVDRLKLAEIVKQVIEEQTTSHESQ
T3 sequence (Q15831 whole entry): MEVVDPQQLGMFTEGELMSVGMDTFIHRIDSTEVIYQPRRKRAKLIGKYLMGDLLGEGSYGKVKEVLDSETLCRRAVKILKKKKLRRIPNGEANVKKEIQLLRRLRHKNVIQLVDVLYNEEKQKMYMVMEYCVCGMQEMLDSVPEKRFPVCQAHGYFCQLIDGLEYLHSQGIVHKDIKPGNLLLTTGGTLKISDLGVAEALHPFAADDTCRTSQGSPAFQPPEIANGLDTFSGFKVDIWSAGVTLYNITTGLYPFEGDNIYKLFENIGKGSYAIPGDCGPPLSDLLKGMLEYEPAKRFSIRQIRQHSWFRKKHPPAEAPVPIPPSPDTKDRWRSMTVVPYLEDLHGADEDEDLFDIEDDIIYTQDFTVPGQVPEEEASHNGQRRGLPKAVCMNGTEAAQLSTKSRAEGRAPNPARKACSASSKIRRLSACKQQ
T9 sequence (Q14004 whole entry): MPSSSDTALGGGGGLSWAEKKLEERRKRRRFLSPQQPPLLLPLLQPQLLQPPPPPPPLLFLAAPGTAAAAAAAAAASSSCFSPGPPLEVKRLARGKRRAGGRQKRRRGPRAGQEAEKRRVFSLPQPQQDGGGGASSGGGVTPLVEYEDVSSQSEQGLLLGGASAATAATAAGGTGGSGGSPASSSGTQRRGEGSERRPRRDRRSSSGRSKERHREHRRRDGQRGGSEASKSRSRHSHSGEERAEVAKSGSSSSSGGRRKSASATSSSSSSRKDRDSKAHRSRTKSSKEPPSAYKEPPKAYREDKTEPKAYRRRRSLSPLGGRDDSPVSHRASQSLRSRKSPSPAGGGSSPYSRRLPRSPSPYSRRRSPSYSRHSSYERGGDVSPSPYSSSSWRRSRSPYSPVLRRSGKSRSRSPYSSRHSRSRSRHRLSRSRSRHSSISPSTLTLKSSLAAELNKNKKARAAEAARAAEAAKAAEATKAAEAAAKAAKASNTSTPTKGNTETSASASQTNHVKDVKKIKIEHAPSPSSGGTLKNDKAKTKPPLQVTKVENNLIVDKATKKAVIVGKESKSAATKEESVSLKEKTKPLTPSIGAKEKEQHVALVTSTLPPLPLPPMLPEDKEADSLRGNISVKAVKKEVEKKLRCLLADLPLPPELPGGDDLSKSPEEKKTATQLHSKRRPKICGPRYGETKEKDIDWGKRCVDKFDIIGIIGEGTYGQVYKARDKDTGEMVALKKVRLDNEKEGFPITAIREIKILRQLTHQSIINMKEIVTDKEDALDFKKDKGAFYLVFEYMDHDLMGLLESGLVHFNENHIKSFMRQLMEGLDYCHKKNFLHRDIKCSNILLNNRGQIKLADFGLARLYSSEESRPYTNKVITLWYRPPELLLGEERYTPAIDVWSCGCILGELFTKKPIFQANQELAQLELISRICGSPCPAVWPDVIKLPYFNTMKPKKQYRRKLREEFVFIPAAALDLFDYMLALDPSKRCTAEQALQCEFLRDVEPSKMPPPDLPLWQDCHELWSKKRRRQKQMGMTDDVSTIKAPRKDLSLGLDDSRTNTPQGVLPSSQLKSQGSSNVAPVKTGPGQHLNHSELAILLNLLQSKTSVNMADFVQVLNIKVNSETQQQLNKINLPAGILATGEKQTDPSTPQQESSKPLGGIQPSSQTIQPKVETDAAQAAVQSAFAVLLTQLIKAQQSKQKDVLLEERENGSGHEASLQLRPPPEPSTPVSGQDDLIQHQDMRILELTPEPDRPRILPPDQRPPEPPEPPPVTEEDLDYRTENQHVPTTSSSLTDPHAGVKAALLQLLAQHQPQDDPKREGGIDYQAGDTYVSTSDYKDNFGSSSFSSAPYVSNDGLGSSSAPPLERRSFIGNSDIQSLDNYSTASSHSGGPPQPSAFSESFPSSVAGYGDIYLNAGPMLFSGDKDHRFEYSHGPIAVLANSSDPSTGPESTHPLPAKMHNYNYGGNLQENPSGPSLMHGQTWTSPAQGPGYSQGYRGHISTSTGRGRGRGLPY
MKNK1, sequence (Q9BUB5 whole entry): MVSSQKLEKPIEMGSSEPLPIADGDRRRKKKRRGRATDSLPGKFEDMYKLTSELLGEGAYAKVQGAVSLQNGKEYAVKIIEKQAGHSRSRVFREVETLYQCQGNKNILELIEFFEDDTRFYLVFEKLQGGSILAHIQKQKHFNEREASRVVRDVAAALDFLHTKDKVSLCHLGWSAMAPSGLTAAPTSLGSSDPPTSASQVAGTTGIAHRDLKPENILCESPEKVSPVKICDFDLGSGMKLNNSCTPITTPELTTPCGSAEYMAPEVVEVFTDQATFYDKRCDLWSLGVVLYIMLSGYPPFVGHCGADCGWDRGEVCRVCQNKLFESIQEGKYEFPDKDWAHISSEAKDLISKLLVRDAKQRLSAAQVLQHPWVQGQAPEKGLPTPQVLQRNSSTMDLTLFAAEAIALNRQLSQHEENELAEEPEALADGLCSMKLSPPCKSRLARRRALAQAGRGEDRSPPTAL
BUB1, sequence (O43683 whole entry): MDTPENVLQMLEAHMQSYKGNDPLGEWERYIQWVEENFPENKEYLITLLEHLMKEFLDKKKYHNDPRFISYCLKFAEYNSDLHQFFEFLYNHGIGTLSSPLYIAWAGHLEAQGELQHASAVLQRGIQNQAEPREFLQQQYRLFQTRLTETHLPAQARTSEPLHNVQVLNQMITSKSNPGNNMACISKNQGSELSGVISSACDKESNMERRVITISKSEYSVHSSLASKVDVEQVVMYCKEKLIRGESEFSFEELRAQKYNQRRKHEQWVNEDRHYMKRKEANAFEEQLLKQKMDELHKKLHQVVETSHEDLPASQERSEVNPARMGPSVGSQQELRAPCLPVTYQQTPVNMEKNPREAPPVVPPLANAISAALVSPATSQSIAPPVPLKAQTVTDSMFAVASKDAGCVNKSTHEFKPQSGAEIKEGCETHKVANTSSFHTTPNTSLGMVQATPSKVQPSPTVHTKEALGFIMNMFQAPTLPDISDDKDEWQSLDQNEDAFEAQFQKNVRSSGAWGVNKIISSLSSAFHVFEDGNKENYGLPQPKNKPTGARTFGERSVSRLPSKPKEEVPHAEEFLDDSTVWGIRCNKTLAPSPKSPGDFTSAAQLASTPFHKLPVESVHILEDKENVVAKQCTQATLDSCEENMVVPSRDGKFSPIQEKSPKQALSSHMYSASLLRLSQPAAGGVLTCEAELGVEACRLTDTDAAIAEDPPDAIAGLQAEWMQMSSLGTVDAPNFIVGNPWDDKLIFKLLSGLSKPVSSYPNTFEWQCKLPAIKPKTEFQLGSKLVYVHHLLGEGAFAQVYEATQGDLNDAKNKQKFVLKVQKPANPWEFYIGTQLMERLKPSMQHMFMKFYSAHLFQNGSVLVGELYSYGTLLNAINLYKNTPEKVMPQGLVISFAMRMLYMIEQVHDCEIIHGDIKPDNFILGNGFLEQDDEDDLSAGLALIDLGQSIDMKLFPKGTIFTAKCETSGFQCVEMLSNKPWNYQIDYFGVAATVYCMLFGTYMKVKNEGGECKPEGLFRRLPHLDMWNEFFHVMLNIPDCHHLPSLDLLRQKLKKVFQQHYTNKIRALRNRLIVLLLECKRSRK
T6 sequence (Q00536 whole entry): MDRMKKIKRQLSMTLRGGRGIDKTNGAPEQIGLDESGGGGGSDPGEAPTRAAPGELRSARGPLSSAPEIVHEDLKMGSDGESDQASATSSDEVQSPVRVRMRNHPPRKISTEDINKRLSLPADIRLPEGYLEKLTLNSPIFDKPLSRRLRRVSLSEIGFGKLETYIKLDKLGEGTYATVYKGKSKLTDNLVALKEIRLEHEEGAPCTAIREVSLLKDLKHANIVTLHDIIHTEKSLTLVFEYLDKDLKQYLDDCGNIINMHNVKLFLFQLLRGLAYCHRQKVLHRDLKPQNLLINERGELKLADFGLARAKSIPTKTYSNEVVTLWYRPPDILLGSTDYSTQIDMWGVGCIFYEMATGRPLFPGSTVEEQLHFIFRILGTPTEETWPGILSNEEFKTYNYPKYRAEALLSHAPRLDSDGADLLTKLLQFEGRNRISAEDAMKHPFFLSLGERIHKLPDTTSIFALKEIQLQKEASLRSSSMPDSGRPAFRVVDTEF
T1 sequence (P52564 whole entry): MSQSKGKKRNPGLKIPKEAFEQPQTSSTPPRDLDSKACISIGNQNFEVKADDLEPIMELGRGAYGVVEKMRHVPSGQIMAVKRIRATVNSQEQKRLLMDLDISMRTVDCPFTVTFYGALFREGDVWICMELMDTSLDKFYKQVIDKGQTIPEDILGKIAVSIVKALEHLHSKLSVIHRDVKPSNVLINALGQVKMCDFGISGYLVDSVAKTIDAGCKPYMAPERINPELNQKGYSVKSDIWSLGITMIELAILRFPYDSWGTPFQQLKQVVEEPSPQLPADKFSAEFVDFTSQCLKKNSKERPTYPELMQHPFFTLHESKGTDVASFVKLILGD

remaining binding at 100 µM (MKNK1): 62%
remaining binding at 100 µM (RIOK1): 100%
remaining binding at 100 µM (MEK6): 82%
remaining binding at 100 µM (PIK3CA(Q546K)): 83%
remaining binding at 100 µM (BUB1): 85%
remaining binding at 100 µM (ABL1-nonphosphorylated): 76%
remaining binding at 100 µM (EGFR): 79%
remaining binding at 100 µM (TXK): 89%
remaining binding at 100 µM (LTK): 79%
remaining binding at 100 µM (LKB1): 50%
remaining binding at 100 µM (MRCKB): 91%
remaining binding at 100 µM (PAK1): 66%
remaining binding at 100 µM (EPHA5): 61%
remaining binding at 100 µM [1]: 97%
remaining binding at 100 µM (MAPKAPK5): 87%
remaining binding at 100 µM (PCTK1): 100%
remaining binding at 100 µM (ADCK3): 66%
remaining binding at 100 µM (ERK3): 73%
remaining binding at 100 µM (CDC2L5): 74%
remaining binding at 100 µM (CTK): 75%
remaining binding at 100 µM (LRRK2(G2019S)): 81%
Compound: C=C(C)[C@H]1CC=C(C)C(=O)C1 [S-carvone]
